Measured values published in ChEMBL document CHEMBL3044744, “Antifeedant effects of marine halogenated monoterpenes” (J Agric Food Chem, 2002).
≈ marks a conversion by molar mass, not a printed value. Calls of active or inactive are those of the source. The rule behind the calls is not given here.

Columns and labels:
Spodoptera littoralis [1] = test: Antifeedant activity against L6 larvae of Spodoptera littoralis in Solanum tuberosum by choice test; type: functional, organism-based
Rhopalosiphum padi [2] = test: Antifeedant activity against adult of Rhopalosiphum padi in Hordeum vulgare by choice test; type: functional, organism-based
[3] = tested on: Leptinotarsa decemlineata; test: Antifeedant activity against adult of Leptinotarsa decemlineata in […] by choice test; type: functional, organism-based
Hordeum vulgare = test: Phytotoxicity against Hordeum vulgare (barley) assessed as photosynthetic efficiency in leaf; type: organism-based; conditions: in vivo
Rhopalosiphum padi [4] = test: Antifeedant activity against adult of Rhopalosiphum padi in barley leaf assessed as noningestion time at 2 ug/cm2 after 2 hr by electronic recording; type: functional
Rhopalosiphum padi [5] = test: Antifeedant activity against adult of Rhopalosiphum padi in barley leaf assessed as noningestion time at 1 ug/cm2 after 2 hr by electronic recording; type: functional
Rhopalosiphum padi [6] = test: Antifeedant activity against adult of Rhopalosiphum padi in barley leaf assessed as noningestion time at 10 ug/cm2 after 2 hr by electronic recording; type: functional
Rhopalosiphum padi [7] = test: Antifeedant activity against adult of Rhopalosiphum padi in barley leaf assessed as salivation time at 2 ug/cm2 after 2 hr by electronic recording; type: functional
Rhopalosiphum padi [8] = test: Antifeedant activity against adult of Rhopalosiphum padi in barley leaf assessed as salivation time at 1 ug/cm2 after 2 hr by electronic recording; type: functional
Rhopalosiphum padi [9] = test: Antifeedant activity against adult of Rhopalosiphum padi in barley leaf assessed as salivation time at 10 ug/cm2 after 2 hr by electronic recording; type: functional
Rhopalosiphum padi [10] = test: Antifeedant activity against adult of Rhopalosiphum padi in barley leaf assessed as ingestion time at 1 ug/cm2 after 2 hr by electronic recording; type: functional
Rhopalosiphum padi [11] = test: Antifeedant activity against adult of Rhopalosiphum padi in barley leaf assessed as ingestion time at 2 ug/cm2 after 2 hr by electronic recording; type: functional
Rhopalosiphum padi [12] = test: Antifeedant activity against adult of Rhopalosiphum padi in barley leaf assessed as ingestion time at 10 ug/cm2 after 2 hr by electronic recording; type: functional
Myzus persicae [13] = test: Antifeedant activity against adult of Myzus persicae (green peach aphid) in Hordeum vulgare by choice test; type: functional, organism-based
[14] = tested on: Leptinotarsa decemlineata; test: Insecticidal activity against adult of Leptinotarsa decemlineata assessed as mortality at 10 ug/insect treated as hemolymph injection measured up to 3 days; type: functional
Rhopalosiphum padi [15] = test: Antifeedant activity against adult of Rhopalosiphum padi in Hordeum vulgare assessed as total settling at 10 ug/cm2 by choice test; type: functional
Rhopalosiphum padi [16] = test: Antifeedant activity against adult of Rhopalosiphum padi in Hordeum vulgare assessed as total settling at 50 ug/cm2 by choice test; type: functional
Myzus persicae [17] = test: Antifeedant activity against adult of Myzus persicae (green peach aphid) in Hordeum vulgare assessed as total settling at 50 ug/cm2 by choice test; type: functional
Myzus persicae [18] = test: Antifeedant activity against adult of Myzus persicae (green peach aphid) in Hordeum vulgare assessed as total settling at 10 ug/cm2 by choice test; type: functional
[19] = Cytotoxicity against Spodoptera frugiperda (fall armyworm) Sf9 cells after 48 hr by MTT assay; type: cell-based; conditions: read-out: ED50
[20] = Cytotoxicity against Cricetulus griseus CHO (Chinese hamster ovary) cells after 48 hr by MTT assay; type: cell-based; conditions: read-out: ED50
Myzus persicae [21] = test: Insecticidal activity against adult of Myzus persicae (green peach aphid) in Hordeum vulgare at 50 ug/cm2 by choice test; type: functional
Rhopalosiphum padi [22] = test: Insecticidal activity against adult of Rhopalosiphum padi in Hordeum vulgare assessed as mortality at 2 to 10 ug/cm2 by choice test; type: functional
[23] = tested on: Leptinotarsa decemlineata; test: Insecticidal activity against adult of Leptinotarsa decemlineata in […] at 2 ug/cm2 by choice test; type: functional, organism-based
Spodoptera littoralis [24] = test: Insecticidal activity against adult of Spodoptera littoralis in Solanum tuberosum at 50 ug/cm2 by choice test; type: functional, organism-based

SMILES: CC(Br)(CCl)[C@H]1C[C@H](O)[C@](C)(/C(Cl)=C/Br)O1 (some centres undefined) [FUROPLOCAMIOID A]
- Activity (Spodoptera littoralis [1]): inactive
- EC50 (Rhopalosiphum padi [2]): > 100 nmol/cm2
- EC50 [3]: 18.9 nmol/cm2
- Activity (Hordeum vulgare): Non-toxic

SMILES: C[C@]1(/C=C/Cl)C[C@@](C)(Cl)[C@H](Cl)C[C@@H]1Cl [MERTENSENE]
- Time (Rhopalosiphum padi [4]): 15 min
- Time (Rhopalosiphum padi [5]): 17 min
- Time (Rhopalosiphum padi [6]): 15 min
- Time (Rhopalosiphum padi [7]): 48 min
- Time (Rhopalosiphum padi [8]): 40 min
- Time (Rhopalosiphum padi [9]): 45 min
- Time (Rhopalosiphum padi [10]): 3 min
- Time (Rhopalosiphum padi [11]): 1 min
- Time (Rhopalosiphum padi [12]): 0 min
- Activity (Spodoptera littoralis [1]): inactive
- EC50 (Rhopalosiphum padi [2]): 16.6 nmol/cm2
- EC50 (Myzus persicae [13]): 150 nmol/cm2
- EC50 [3]: 150 nmol/cm2
- Activity (Hordeum vulgare): Non-toxic

SMILES: C=C(C)[C@@H]1[C@H]2OC(=O)[C@@H]1[C@]1(O)C[C@H]3O[C@]34C(=O)O[C@H]2[C@]14C [PICROTOXININ]
- EC50 (Rhopalosiphum padi [2]): > 100 nmol/cm2
- EC50 (Myzus persicae [13]): > 100 nmol/cm2
- EC50 [3]: 27.5 nmol/cm2

SMILES: CC(=O)O[C@H]1C[C@@H](C(C)(Br)CCl)O[C@@]1(C)/C(Cl)=C/Br (some centres undefined)
- Activity (Spodoptera littoralis [1]): inactive
- EC50 (Rhopalosiphum padi [2]): > 100 nmol/cm2
- Activity (Hordeum vulgare): Non-toxic

SMILES: C[C@]1(/C=C/Cl)C[C@](Cl)(CBr)[C@@H](Cl)C[C@H]1Cl [VIOLACENE]
- mortality [14]: 80%
- Time (Rhopalosiphum padi [4]): 59.5 min
- Time (Rhopalosiphum padi [5]): 51.8 min
- Time (Rhopalosiphum padi [6]): 60 min
- Time (Rhopalosiphum padi [7]): 0.5 min
- Time (Rhopalosiphum padi [8]): 8 min
- Time (Rhopalosiphum padi [9]): 0 min
- Time (Rhopalosiphum padi [10]): 0.2 min
- Time (Rhopalosiphum padi [11]): 0 min
- Time (Rhopalosiphum padi [12]): 0 min
- Activity (Spodoptera littoralis [1]): inactive
- Activity (Rhopalosiphum padi [15]): 17%
- Activity (Rhopalosiphum padi [16]): 50%
- Activity (Myzus persicae [17]): <50%
- Activity (Myzus persicae [18]): 17%
- EC50 (Rhopalosiphum padi [2]): 2.5 nmol/cm2
- EC50 (Myzus persicae [13]): 5.1 nmol/cm2
- EC50 [3]: 140 nmol/cm2
- Activity (Hordeum vulgare): Non-toxic
- CC50 at 48 h [19]: 0.023 µg/mL (≈ 0.0648 µM)
- CC50 at 48 h [20]: 29.8 µg/mL (≈ 84.1 µM)

SMILES: CC(=O)O[C@H]1C[C@H](C(C)(Br)CCl)O[C@@]1(C)/C(Cl)=C/Br (some centres undefined)
- Activity (Spodoptera littoralis [1]): inactive
- EC50 (Rhopalosiphum padi [2]): > 100 nmol/cm2
- EC50 (Myzus persicae [13]): 50 nmol/cm2
- EC50 [3]: 17.1 nmol/cm2
- Activity (Hordeum vulgare): Non-toxic

SMILES: C=C1C[C@](C)(/C=C/Cl)[C@H](Cl)C[C@H]1Cl
- Activity (Spodoptera littoralis [1]): inactive
- EC50 (Rhopalosiphum padi [2]): 44.2 nmol/cm2
- EC50 (Myzus persicae [13]): 7.1 nmol/cm2
- EC50 [3]: 12.9 nmol/cm2
- Activity (Hordeum vulgare): Non-toxic

SMILES: CC(C)=CCC/C(C)=C/CC/C(C)=C/CO [FARNESOL]
- EC50 (Rhopalosiphum padi [2]): 7.9 nmol/cm2
- EC50 (Myzus persicae [13]): 67.1 nmol/cm2
- EC50 [3]: 107.3 nmol/cm2

SMILES: CC(Br)(CCl)[C@@H]1C[C@H](O)[C@](C)(/C(Cl)=C/Br)O1 (some centres undefined) [FUROPLOCAMIOID C]
- Activity (Spodoptera littoralis [1]): inactive
- Activity (Rhopalosiphum padi [15]): 17%
- Activity (Rhopalosiphum padi [16]): 50%
- Activity (Myzus persicae [17]): <50%
- Activity (Myzus persicae [18]): 17%
- EC50 (Rhopalosiphum padi [2]): 1.6 nmol/cm2
- EC50 (Myzus persicae [13]): 3.7 nmol/cm2
- EC50 [3]: 19.1 nmol/cm2
- Activity (Hordeum vulgare): Non-toxic
- CC50 at 48 h [19]: 0.03 µg/mL (≈ 0.0756 µM)
- CC50 at 48 h [20]: 8.09 µg/mL (≈ 20.4 µM)

SMILES: CC1=CCC(C(C)(C)Cl)OC1C(Br)Br (centres undefined) [PANTONEURINE AB]
- Activity (Spodoptera littoralis [1]): inactive
- EC50 (Rhopalosiphum padi [2]): > 100 nmol/cm2
- EC50 (Myzus persicae [13]): 100 nmol/cm2
- EC50 [3]: 2.4 nmol/cm2
- Activity (Hordeum vulgare): Non-toxic

SMILES: C[C@]1(/C=C/Cl)C[C@@](C)(Cl)[C@H](Cl)C[C@H]1Cl
- Activity (Spodoptera littoralis [1]): inactive
- EC50 (Rhopalosiphum padi [2]): 63 nmol/cm2
- EC50 (Myzus persicae [13]): > 100 nmol/cm2
- EC50 [3]: 30.1 nmol/cm2
- Activity (Hordeum vulgare): Non-toxic

SMILES: C[C@@]1(Cl)C[C@@](C)(/C=C/Cl)[C@H](Cl)C[C@H]1Cl
- Activity (Spodoptera littoralis [1]): inactive
- EC50 (Rhopalosiphum padi [2]): 15.9 nmol/cm2
- EC50 (Myzus persicae [13]): 1 nmol/cm2
- EC50 [3]: 13 nmol/cm2
- Activity (Hordeum vulgare): Non-toxic

SMILES: Cc1ccc(C(C)C)c(O)c1 [THYMOL]
- EC50 (Rhopalosiphum padi [2]): 23.7 nmol/cm2
- EC50 (Myzus persicae [13]): 30.9 nmol/cm2
- EC50 [3]: 3.6 nmol/cm2

SMILES: C[C@]1(/C=C/Cl)C[C@](Cl)(CBr)[C@@H](Br)C[C@H]1Cl
- Time (Rhopalosiphum padi [4]): 60 min
- Time (Rhopalosiphum padi [5]): 48 min
- Time (Rhopalosiphum padi [6]): 60 min
- Time (Rhopalosiphum padi [7]): 0 min
- Time (Rhopalosiphum padi [8]): 12 min
- Time (Rhopalosiphum padi [9]): 0 min
- Time (Rhopalosiphum padi [10]): 0.1 min
- Time (Rhopalosiphum padi [11]): 0 min
- Time (Rhopalosiphum padi [12]): 0 min
- Activity (Spodoptera littoralis [1]): inactive
- EC50 (Rhopalosiphum padi [2]): 1.2 nmol/cm2
- EC50 (Myzus persicae [13]): 1 nmol/cm2
- EC50 [3]: 39.3 nmol/cm2
- Activity (Hordeum vulgare): Non-toxic

SMILES: CC1=CCC(C(C)(Cl)CCl)OC1C(Br)Br (centres undefined)
- Activity (Spodoptera littoralis [1]): inactive
- EC50 (Rhopalosiphum padi [2]): > 100 nmol/cm2
- EC50 (Myzus persicae [13]): > 100 nmol/cm2
- EC50 [3]: 8.3 nmol/cm2
- Activity (Hordeum vulgare): Non-toxic

SMILES: Cl[C@H]1[C@H](Cl)[C@@H](Cl)[C@@H](Cl)[C@H](Cl)[C@H]1Cl [LINDANE]
- mortality [14]: 100%
- mortality at 50 µg/cm2 (Myzus persicae [21]): 100%
- mortality (Rhopalosiphum padi [22]): >50%
- Activity [23]: Active
- Activity (Spodoptera littoralis [24]): Active
- EC50 (Spodoptera littoralis [1]): 16.8 nmol/cm2
- EC50 [3]: 0.1 nmol/cm2
- CC50 at 48 h [19]: 0.001 µg/mL (≈ 0.00344 µM)
- CC50 at 48 h [20]: > 100 µg/mL

SMILES: CC(=C/C[C@@H](O)[C@](C)(Br)CCl)/C(Cl)=C/Br [PREFUROPLOCAMIOID]
- Activity (Spodoptera littoralis [1]): inactive
- EC50 (Rhopalosiphum padi [2]): 38.9 nmol/cm2
- EC50 (Myzus persicae [13]): 25.3 nmol/cm2
- EC50 [3]: > 100 nmol/cm2
- Activity (Hordeum vulgare): Non-toxic

SMILES: CC(=O)OC(C/C=C(/C)C(Cl)C(Br)Br)C(C)(Br)CCl (centres undefined)
- Activity (Spodoptera littoralis [1]): inactive
- EC50 (Rhopalosiphum padi [2]): 70 nmol/cm2
- EC50 [3]: 70 nmol/cm2
- Activity (Hordeum vulgare): Non-toxic

SMILES: CC1=C[C@](C)(/C=C/Cl)C=CC1=O
- Activity (Spodoptera littoralis [1]): inactive
- EC50 (Rhopalosiphum padi [2]): 200 nmol/cm2
- EC50 (Myzus persicae [13]): 200 nmol/cm2
- EC50 [3]: 21.2 nmol/cm2
- Activity (Hordeum vulgare): Non-toxic
